Experiments:
Type in all cases: cell-based
[1] = test system: A498; assay: NCI in vitro mini panel, human cancer cell line growth inhibition; settings: Renal A498, 48 hrs
Method: (§1) ED50 (P388) and GI50 (HTCL) identify the drug dose which reduces the percent tumor/cell growth to 50%. There is no mathematical difference between ED50 and GI50, both of which are calculated using the same formula. The only difference is historical usage.
(§2) TGI, means "Total Growth Inhibition", and identifies the drug dose needed to yield zero percent growth, i.e. there are just as many cells at the end of the experiment as were present at the beginning. Whether just as many cells were killed as were produced (steady state), or no growth occurred (total inhibition) cannot be distinguished.
(§3) LC50, means "Lethal Concentration 50%", and identifies the drug concentration which reduces to one-half of the cells originally present at the beginning of the experiment.
(§4) Each drug is tested at five (5) doses: 100--10-1-0.1--0.01 μg/mL. Percent Growths are calculated for each dose. The two (or three) doses with growth values above, below, (or near to) 50% growth are used to calculate the ED50 /GI50 values using a linear regression computation. If no dose yields a growth value under 50%, the results are expressed as: ED50 >(highest dose). If no dose yields growth higher than 50% growth, then ED50 <(lowest dose). Similar calculations are performed for the TGI at 0% growth, and at -50% growth for the LC50.
(§5) At the start of each experiment, cells from the in vitro cell cultures are inoculated into the appropriate tubes or microtiter plates. One set of control tubes/plates is immediately counted to determine the number of cells at the start of the experiment. This is the "baseline count", or "Tzero reading". At the end of the experiment (48 hrs later), a second set of control tubes/plates is analyzed to determine the "Control Growth" value. The growth (or death) of cells relative to the initial quantity of cells is used to define the "Percent of Growth."
(§6) Similarly, the compounds disclosed herein have also been tested against an NCI in vitro mini panel. For each of six cell lines GI50, TGI, and LC50 amounts were calculated for each compound. Each compound was also tested against the PS-388 cell line and for this test an ED50 was calculated.
(§7) The protocols followed, for the NCI minipanel are, except for the number of cell lines, those established by M. R. Boyd Ph.D., and well known to those of ordinary skill in the art. The procedure followed for the test against PS-388 Leukemia is the same that was followed in the superseded NCI P-388 screening test, which is also well known to those having ordinary skill in the art.

[2] = test system: KM20L2; assay: as above; settings: Colon KM20L2, 48 hrs
Method: as §1, §2, §3, §4, §5, §6, §7

[3] = test system: NCI-H460; assay: as above; settings: Lung-NSC NCI-H460, 48 hrs
Method: as §1, §2, §3, §4, §5, §6, §7

[4] = test system: OVCAR-3; assay: as above; settings: Ovarian OVCAR-3, 48 hrs
Method: as §1, §2, §3, §4, §5, §6, §7

[5] = test system: SF-295; assay: as above; settings: CNS SF-295, 48 hrs
Method: as §1, §2, §3, §4, §5, §6, §7

[6] = test system: SK-MEL-5; assay: as above; settings: Melanoma SK-MEL-5, 48 hrs
Method: as §1, §2, §3, §4, §5, §6, §7

[7] = test system: PS-388; assay: PS-388 mouse leukemia cell line test; settings: Mouse Leukemia PS-388
Method: as §1, §4, §5, §6, §7

L-Dolavalyl-L-Leucyl-N-methyl-(3R,4S,5S)-Dolaisoleuinyl-(2R,3R,4S)-Dolaproinyl-N-2(3-chlorophenyl) ethylamide [10c]
GI-50 [1]: 0.0038 µg/mL
LC-50 [1]: > 0.01 µg/mL
TGI [1]: > 0.01 µg/mL
GI-50 [2]: 0.0020 µg/mL
LC-50 [2]: > 0.01 µg/mL
TGI [2]: > 0.01 µg/mL
GI-50 [3]: 0.0029 µg/mL
LC-50 [3]: > 0.01 µg/mL
TGI [3]: 0.0084 µg/mL
GI-50 [4]: 0.0019 µg/mL
LC-50 [4]: > 0.01 µg/mL
TGI [4]: > 0.01 µg/mL
GI-50 [5]: 0.0035 µg/mL
LC-50 [5]: > 0.01 µg/mL
TGI [5]: > 0.01 µg/mL
GI-50 [6]: 0.0025 µg/mL
LC-50 [6]: > 0.01 µg/mL
TGI [6]: > 0.01 µg/mL
ED-50 [7]: 0.00314 µg/mL

L-Dolavalyl-L-Leucyl-N-methyl-(3R,4S,5S)-Dolaisoleuinyl-(2R,3R,4S)-Dolaproinyl-Dolaphenine [10a]
GI-50 [1]: 0.00026 µg/mL
LC-50 [1]: > 0.01 µg/mL
TGI [1]: 0.0063 µg/mL
GI-50 [2]: 0.000034 µg/mL
LC-50 [2]: > 0.01 µg/mL
TGI [2]: 0.001 µg/mL
GI-50 [3]: 0.00022 µg/mL
LC-50 [3]: > 0.01 µg/mL
TGI [3]: 0.0007 µg/mL
GI-50 [4]: 0.000031 µg/mL
LC-50 [4]: > 0.01 µg/mL
TGI [4]: 0.00051 µg/mL
GI-50 [5]: 0.00027 µg/mL
LC-50 [5]: > 0.01 µg/mL
TGI [5]: > 0.01 µg/mL
GI-50 [6]: 0.000058 µg/mL
LC-50 [6]: > 0.01 µg/mL
TGI [6]: > 0.01 µg/mL
ED-50 [7]: 0.0000312 µg/mL

L-Dolavalyl-L-Leucyl-N-methyl-(3R,4S,5S)-Dolaisoleuinyl-(2R,3R,4S)-Dolaproinyl-L-Methionine N-3-quinolinamide [8g]
GI-50 [1]: 0.00026 µg/mL
LC-50 [1]: > 0.01 µg/mL
TGI [1]: > 0.01 µg/mL
GI-50 [2]: 0.000019 µg/mL
LC-50 [2]: > 0.01 µg/mL
TGI [2]: 0.0012 µg/mL
GI-50 [3]: 0.00032 µg/mL
LC-50 [3]: > 0.01 µg/mL
TGI [3]: 0.0012 µg/mL
GI-50 [4]: < 0.000006 µg/mL
LC-50 [4]: > 0.01 µg/mL
TGI [4]: 0.001 µg/mL
GI-50 [5]: 0.00041 µg/mL
LC-50 [5]: > 0.01 µg/mL
TGI [5]: > 0.01 µg/mL
GI-50 [6]: < 0.000006 µg/mL
LC-50 [6]: > 0.01 µg/mL
TGI [6]: > 0.01 µg/mL
ED-50 [7]: 0.000271 µg/mL

L-Dolavalyl-L-Leucyl-N-methyl-(3R,4S,5S)-Dolaisoleuinyl-(2R,3R,4S)-Dolaproinyl-N-2(2-chlorophenyl) ethylamide [10b]
GI-50 [1]: 0.00069 µg/mL
LC-50 [1]: > 0.01 µg/mL
TGI [1]: > 0.01 µg/mL
GI-50 [2]: 0.00031 µg/mL
LC-50 [2]: > 0.01 µg/mL
TGI [2]: 0.0013 µg/mL
GI-50 [3]: 0.00033 µg/mL
LC-50 [3]: > 0.01 µg/mL
TGI [3]: 0.0014 µg/mL
GI-50 [4]: 0.00031 µg/mL
LC-50 [4]: > 0.01 µg/mL
TGI [4]: 0.0012 µg/mL
GI-50 [5]: 0.00042 µg/mL
LC-50 [5]: > 0.01 µg/mL
TGI [5]: > 0.01 µg/mL
GI-50 [6]: 0.00043 µg/mL
LC-50 [6]: > 0.01 µg/mL
TGI [6]: > 0.01 µg/mL
ED-50 [7]: 0.000357 µg/mL

L-Dolavalyl-L-Leucyl-N-methyl-(3R,4S,5S)-Dolaisoleuinyl-(2R,3R,4S)-Dolaproinyl-L-Methionine N-2-benzothiazolamide [8e]
GI-50 [1]: 0.00087 µg/mL
LC-50 [1]: > 0.01 µg/mL
TGI [1]: > 0.01 µg/mL
GI-50 [2]: 0.00034 µg/mL
LC-50 [2]: > 0.01 µg/mL
TGI [2]: > 0.01 µg/mL
GI-50 [3]: 0.0032 µg/mL
LC-50 [3]: > 0.01 µg/mL
TGI [3]: > 0.01 µg/mL
GI-50 [4]: 0.00008 µg/mL
LC-50 [4]: > 0.01 µg/mL
TGI [4]: 0.0029 µg/mL
GI-50 [5]: 0.0036 µg/mL
LC-50 [5]: > 0.01 µg/mL
TGI [5]: > 0.01 µg/mL
GI-50 [6]: 0.000051 µg/mL
LC-50 [6]: > 0.01 µg/mL
TGI [6]: > 0.01 µg/mL
ED-50 [7]: 0.000839 µg/mL

L-Dolavalyl-L-Leucyl-N-methyl-(3R,4S,5S)-Dolaisoleuinyl-(2R,3R,4S)-Dolaproinyl-L-Methionine N-4-chlorophenylamide [8b]
GI-50 [1]: 0.00045 µg/mL
LC-50 [1]: > 0.01 µg/mL
TGI [1]: > 0.01 µg/mL
GI-50 [2]: 0.00028 µg/mL
LC-50 [2]: > 0.01 µg/mL
TGI [2]: > 0.01 µg/mL
GI-50 [3]: 0.003 µg/mL
LC-50 [3]: > 0.01 µg/mL
TGI [3]: 0.009 µg/mL
GI-50 [4]: 0.000031 µg/mL
LC-50 [4]: > 0.01 µg/mL
TGI [4]: 0.0016 µg/mL
GI-50 [5]: 0.0029 µg/mL
LC-50 [5]: > 0.01 µg/mL
TGI [5]: > 0.01 µg/mL
GI-50 [6]: 0.000018 µg/mL
LC-50 [6]: > 0.01 µg/mL
TGI [6]: > 0.01 µg/mL
ED-50 [7]: 0.000434 µg/mL

L-Dolavalyl-L-Leucyl-N-methyl-(3R,4S,5S)-Dolaisoleuinyl-(2R,3R,4S)-Dolaproinyl-N-2(4-chlorophenyl) ethylamide [10d]
GI-50 [1]: 0.0059 µg/mL
LC-50 [1]: > 1 µg/mL
TGI [1]: 0.29 µg/mL
GI-50 [2]: 0.00011 µg/mL
LC-50 [2]: > 1 µg/mL
TGI [2]: 0.011 µg/mL
GI-50 [3]: 0.0024 µg/mL
LC-50 [3]: > 1 µg/mL
TGI [3]: 0.0097 µg/mL
GI-50 [4]: 0.00029 µg/mL
LC-50 [4]: > 1 µg/mL
TGI [4]: 0.012 µg/mL
GI-50 [5]: 0.0017 µg/mL
LC-50 [5]: > 1 µg/mL
TGI [5]: 0.1 µg/mL
GI-50 [6]: 0.00091 µg/mL
LC-50 [6]: > 1 µg/mL
TGI [6]: > 1 µg/mL
ED-50 [7]: 0.00586 µg/mL

L-Dolavalyl-L-Leucyl-N-methyl-(3R,4S,5S)-Dolaisoleuinyl-(2R,3R,4S)-Dolaproinyl-L-Phenylalanine N-3-chlorophenylamide [8c]
GI-50 [1]: 0.00042 µg/mL
LC-50 [1]: > 0.01 µg/mL
TGI [1]: > 0.01 µg/mL
GI-50 [2]: 0.00021 µg/mL
LC-50 [2]: > 0.01 µg/mL
TGI [2]: 0.0012 µg/mL
GI-50 [3]: 0.0017 µg/mL
LC-50 [3]: > 0.01 µg/mL
TGI [3]: 0.0054 µg/mL
GI-50 [4]: 0.000064 µg/mL
LC-50 [4]: > 0.01 µg/mL
TGI [4]: 0.0011 µg/mL
GI-50 [5]: 0.00088 µg/mL
LC-50 [5]: > 0.01 µg/mL
TGI [5]: > 0.01 µg/mL
GI-50 [6]: 0.000042 µg/mL
LC-50 [6]: > 0.01 µg/mL
TGI [6]: 0.00074 µg/mL
ED-50 [7]: 0.0000371 µg/mL

L-Dolavalyl-L-Leucyl-N-methyl-(3R,4S,5S)-Dolaisoleuinyl-(2R,3R,4S)-Dolaproinyl-L-Methionine N-2-chlorophenylamide [8a]
GI-50 [1]: 0.0037 µg/mL
LC-50 [1]: > 0.01 µg/mL
TGI [1]: > 0.01 µg/mL
GI-50 [2]: 0.0018 µg/mL
LC-50 [2]: > 0.01 µg/mL
TGI [2]: > 0.01 µg/mL
GI-50 [3]: 0.0028 µg/mL
LC-50 [3]: > 0.01 µg/mL
TGI [3]: 0.0079 µg/mL
GI-50 [4]: 0.00047 µg/mL
LC-50 [4]: > 0.01 µg/mL
TGI [4]: 0.005 µg/mL
GI-50 [5]: 0.0034 µg/mL
LC-50 [5]: > 0.01 µg/mL
TGI [5]: > 0.01 µg/mL
GI-50 [6]: 0.042 µg/mL
LC-50 [6]: > 0.01 µg/mL
TGI [6]: > 0.01 µg/mL
ED-50 [7]: 0.00256 µg/mL

Source: US5530097A, “Human cancer inhibitory peptide amides” (Arizona Board of Regents acting on behalf of Arizona State …, priority 1994, dated 1996)
